Experimental data published in patent US11684599B2, “Very-long-chain polyunsaturated fatty acids, elovanoid hydroxylated derivatives, and methods of use” (Board of Supervisors of Louisiana State University and …, priority 2017, dated 2023).

Legend:
[1] = test system: rats with fluid percussion injury (FPI); assay: Traumatic brain injury (fluid percussion injury), neurobehavioral score and MRI; format: in vivo; conditions: moderate FPI; 1 μg/per rat into subdural space 1 h after TBI; days 1-14; versus CSF
Experimental: FIGS. 23A and 23C: delivery via an intravenous injection; FIG. 23B: delivery via subdural injection. SD rats were subjected to a moderate fluid percussion injury (FPI) model and treated (1 μg/per rat) with 32- and 34 carbon elovanoids as the methyl ester (ME) or sodium salt (Na) (ELV-N32-ME, ELV-N34-ME, ELV-32-Na-d2, ELV-N34-Alkyne) or of vehicle (cerebral spinal fluid; CSF). Treatments were delivered into subdural space at 1 h after TBI. Animals received neurobehavioral examination (normal=0, maximal deficit=12) on days 1, 2, 3, 7 or 14. […] ELV-N34-Alkyne (IV, 300 μg/per animal). All animals received neurobehavioral examination (normal=0, maximal deficit=12) on days 1, 2, 3, 7 or 14.
FIG. 34 is a schematic representation of an experimental protocol for to study the effects of traumatic brain injury through one exemplary model. Briefly, moderate TBI was administered via fluid percussion injury (FPI) to the right parieto-occipital area in male Sprague Dawley rats followed by treatment with elovanoids, behavioral testing, and ex vivo MRI histopathology.
Briefly, Sprague-Dawley rats (280-350 g) were subjected to 4.8 mm craniotomy overlying the right parietal cortex (3.8 mm posterior to bregma and 2.5 mm lateral to midline) was performed 24 hours before fluid percussion injury. A plastic adaptor with a plug was positioned over the craniotomy. […]

[2] = test system: rats with middle cerebral artery occlusion (MCAo); assay: Immunohistochemistry (NeuN, GFAP, SMI-71, IgG) after MCAo; format: in vivo, rat; conditions: for IgG staining in the cortex / IgG staining intensity: 7 days; for IgG immunoreactivity in subcortex / IgG immunoreactivity in whole hemisphere (total): versus the vehicle group; for IgG staining intensity: compared with CSF-treated group
Experimental: (§1) Male Sprague-Dawley rats (Charles River Lab., Wilmington, Mass.) weighing 280-340 g were fasted overnight but allowed free access to water. Atropine sulfate (0.5 mg/kg, i.p.) was injected 10 mins before anesthesia. Anesthesia was induced with 3% isoflurane in a mixture of 70% nitrous oxide and 30% oxygen. All rats were orally intubated and mechanically ventilated. During ventilation, the animals were paralyzed with pancuronium bromide (0.6 mg/kg, i.p.). The catheters were implanted into the right femoral artery and vein for the blood sampling and infusion of drug. Serial analyses of arterial blood gases, plasma glucose, arterial blood pressure and heart beating rate were conducted before and during surgical procedure. Rectal (CMA/150 Temperature Controller, CMA/Microdialysis AB, Stockholm, Sweden) and cranial (temporalis muscle; Omega Engineering, Stamford, Conn.) temperatures were closely monitored before, during and after MCAo. Rectal temperature and body weight were monitored daily until sacrifice.
(§2) Rats underwent 2 h of right middle cerebral artery occlusion (MCAo) by an intraluminal-filament. In brief, the right common carotid artery (CCA) bifurcation was exposed through a midline neck incision and the occipital artery branches of the external carotid artery were isolated, ligated and dissected. After careful isolation of the internal carotid artery (ICA), a 3-0 monofilament coated with poly-L-lysine was advanced through the ICA to the MCA until mild resistance was felt. The neck incision was closed with a silk suture and the animals were then allowed to recover. After 2 h of MCAo, rats were re-anesthetized with the same anesthetic combination. Temperature probes were re-inserted, and intraluminal sutures were carefully removed. The animals given free access to food and water for 7 days.
(§3) Thirty minutes after suture removal, a brain infusion cannula was implanted into the right lateral ventricle for treatment administration in each rat. Rats were anesthetized with 3% isoflurane and were secured to a stereotaxic apparatus with skull leveled between bregma and lambda. A sterile stainless steel cannula (5-mm long) was implanted into the lateral ventricle using the stereotaxic coordinates (0.2 mm caudal to bregma, 2 mm lateral to midline, and 5 mm below the dura). Cannulas were removed after treatment was completed.
(§4) Elovanoids (ELV) as sodium salts (Na) or methyl esters (Me) were dissolved in artificial cerebral spinal fluid (CSF) and administered into right lateral ventricle 1 hour after 2 h of MCAo. The following ELVs were used: ELV-N32-Na, ELV-N32-Me, ELV-N34-Na and ELV-N34-Me (5 μg/[…]) or CSF (50 μl). All treatments were administered by a researcher blinded to the treatment groups.
Brain edema was measured by the differences of ipsi- and contra-lateral hemispheres. Immunohistochemical procedures were performed on the adjacent sections to identify specific vascular and neuronal elements in the ischemic core and penumbra. The following antibodies were used: rat blood-brain barrier (SMI-71, BioLegend, San Diego, Calif.) as a vascular marker; glial fibrillary acid protein (GFAP, Agilent Tech. Santa Clara, Calif.) to label reactive astrocytes; and neuron-specific nuclear protein (NeuN, Chemicon/Millipore, Billerica, Mass.) and biotinylated anti-rat immunoglobulin (IgG) antibody (BioLegend, San Diego, Calif.) to detect BBB breakdown. The number of positive cells and immunopositive vessels were counted in the cortex and striatum at the level of the central lesion (bregma level −0.3 mm). Data were expressed as numbers of positive cells and vessels per high-power microscopic field (magnification ×40).
The images of sections were obtained using confocal laser microscope (LSM510, Carl Zeiss MicroImaging, Irvine, Calif.) following specific experimental protocols. The images were acquired with dimension 212.3 μm×212.3 μm using Zen software (Carl Zeiss MicroImaging). Image analysis was conducted using ImageJ software. […]

[3] = test system: rats with middle cerebral artery occlusion (MCAo); assay: Ex vivo MRI (T2WI) lesion, core and penumbra volumes after MCAo; format: in vivo, rat; conditions: day 7, compared to CSF-treated group
Experimental: as §1, §2, §3
as §4, with “groups. […]” for “groups.”

Compound	neurologic score (normal=0, maximal deficit=12) [1]	IgG staining in the cortex [2]	IgG immunoreactivity in subcortex [2]	IgG immunoreactivity in whole hemisphere (total) [2]	reduction of total lesion volume [3]	IgG staining intensity [2]
CC/C=C\C[C@H](O)\C=C/C=C/C=C/[C@H](O)C/C=C\C/C=C\CCCCCCCCCCCCCCC(=O)OC [ELV-N34-Me, methyl (16Z,19Z,22R,23E,25E,27Z,29S,31Z)-22,29-dihydroxytetratriaconta-16,19,23,25,27,31-hexaenoate]	improved neurologic score	significantly less IgG staining	significantly reduced	significantly reduced	91%	
CC/C=C\C[C@H](O)\C=C/C=C/C=C/[C@H](O)C/C=C\C/C=C\CCCCCCCCCCCCC(=O)[O-].[Na+] [ELV-N32-Na, sodium (14Z,17Z,20R,21E,23E,25Z,27S,29Z)-20,27-dihydroxydotriaconta-14,17,21,23,25,29-hexaenoate]					60%	similar
CC/C=C\C[C@H](O)\C=C/C=C/C=C/[C@H](O)C/C=C\C/C=C\CCCCCCCCCCCCCCC(=O)[O-].[Na+] [ELV-N34-Na, sodium (16Z,19Z,22R,23E,25E,27Z,29S,31Z)-22,29-dihydroxytetratriaconta-16,19,23,25,27,31-hexaenoate]		significantly less IgG staining	significantly reduced	significantly reduced	99%	
CC/C=C\C[C@H](O)\C=C/C=C/C=C/[C@H](O)C/C=C\C/C=C\CCCCCCCCCCCCC(=O)OC [ELV-N32-Me, methyl (14Z,17Z,20R,21E,23E,25Z,27S,29Z)-20,27-dihydroxydotriaconta-14,17,21,23,25,29-hexaenoate]	improved neurologic score				56%	similar
